Data published in US8592454B2, “Nitrogen-containing heterocyclic compound and use of same” (Takeda Pharmaceutical Company Limited, priority 2008, dated 2013).
Structures can show the parent of a compound that is named as a salt. Where two headings read alike, the source gives them in different places.

Key:
[1] = biological target: Human NK2 (hNK2) receptor (Homo sapiens (Human), UniProt P21452); assay: Human NK2 receptor binding assay: radioligand ([125I]-NK-A) binding inhibitory activity using membrane fraction of CHO cell expressing human NK2 (hNK2) receptor; conditions: hNK2 receptor binding inhibition
From the text: Human NK2 Receptor Binding Assay

Human NK1 Receptor = Human NK1 Receptor (Homo sapiens (Human), UniProt P25103); assay: Human NK1 receptor binding assay: radioligand (125I-Bolton-Hunter-SP) binding inhibitory activity using receptor from human lymphoblast cells (IM-9); conditions: hNK1 receptor binding inhibition
[2] = biological target: Human NK3 (hNK3) receptor (Homo sapiens (Human), UniProt P29371)
Experimental: Human NK3 Receptor Binding Assay
CHO cells expressing hNK3 receptor were cultured in a MEMα medium (Nikken Seibutsu Igaku Kenkyusho, K.K.) containing 100 U/mL penicillin, 100 μg/mL streptomycin and 10% inactivated dialyzed serum. The medium was removed, the adhered cells were washed with PBS, and PBS containing 5 mM EDTA was added to detach the cells from the flask. The cells were collected by centrifugation, suspended in suspension buffer A (50 mM Tris-HCl (pH 7.4) containing 120 mM NaCl, 5 mM KCl, 2 μg/mL chymostatin, 40 μg/mL bacitracin, 40 μg/ml APMSF, 1 mM EDTA), disrupted by a Polytron homogenizer (Kinematika), and centrifuged at 800×g for 10 min. The supernatant was recovered and ultracentrifuged at 100,000×g for 25 min. The precipitation fraction was suspended in suspension buffer B (50 mM Tris-HCl (pH 7.4), 0.02% bovine serum albumin, 2 μg/ml chymostatin, 40 μg/ml bacitracin, 40 μg/mL APMSF, 3 mM MnCl2), and cryopreserved (−80° C.) as a receptor reference standard.
Measurement buffer (50 mM Tris-HCl (pH 7.4), 0.02% bovine serum albumin, 2 μg/ml chymostatin, 40 μg/mL bacitracin, 40 μg/mL APMSF, 3 mM MnCl2) (50 μL) was added to a 96-well microassay plate. The membrane reference standard (300 μg/mL) suspended in a measurement buffer was added by 50 μL. […] Furthermore, 400 μM [^125I]-NK-B (Neurokinin-B (N-Me-Phe^7), [^125I]His^3-) (PerkinElmer) solution was added to each well by 50 μL.
After reaction at 25° C. for 30 min, the reaction was quenched using a cell harvester (PerkinElmer) by rapid filtration on a GF/C filter plate, and the cells were washed 5 times with 250 μL of a 50 mM Tris-HCl buffer (pH 7.4) containing 0.02% bovine serum albumin. The GF/C filter plate was dried, MicroScinti-0 (Perkin Elmer) was added by 20 μL, and the radioactivity was measured on a TopCount (PerkinElmer). The GF/C filter plate used had been immersed in 0.3% polyethyleneimine for one day.
The specific binding level is shown by a value obtained by subtracting non-specific binding level from the total binding level. The binding inhibitory activity of the test compound is shown by a ratio of the value obtained by subtracting the measurement value with addition of a test compound from the total binding level, to the value of the specific binding level.

[3] = read-out: IC50 value hNK3, hNK3 receptor binding inhibition

Sequence of Human NK1 Receptor (P25103 whole entry): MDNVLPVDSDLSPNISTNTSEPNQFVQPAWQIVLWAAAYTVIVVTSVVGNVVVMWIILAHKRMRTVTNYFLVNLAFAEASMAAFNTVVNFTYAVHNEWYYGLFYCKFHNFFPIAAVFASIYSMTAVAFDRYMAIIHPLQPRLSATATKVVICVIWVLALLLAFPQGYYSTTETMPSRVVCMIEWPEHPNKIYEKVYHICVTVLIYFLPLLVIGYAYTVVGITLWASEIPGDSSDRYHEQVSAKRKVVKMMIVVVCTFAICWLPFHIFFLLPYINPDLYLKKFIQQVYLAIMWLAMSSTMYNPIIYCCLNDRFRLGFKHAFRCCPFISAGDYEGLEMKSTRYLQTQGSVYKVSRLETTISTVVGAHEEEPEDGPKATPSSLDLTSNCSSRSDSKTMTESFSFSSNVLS
Sequence of Human NK3 (hNK3) receptor (P29371 whole entry): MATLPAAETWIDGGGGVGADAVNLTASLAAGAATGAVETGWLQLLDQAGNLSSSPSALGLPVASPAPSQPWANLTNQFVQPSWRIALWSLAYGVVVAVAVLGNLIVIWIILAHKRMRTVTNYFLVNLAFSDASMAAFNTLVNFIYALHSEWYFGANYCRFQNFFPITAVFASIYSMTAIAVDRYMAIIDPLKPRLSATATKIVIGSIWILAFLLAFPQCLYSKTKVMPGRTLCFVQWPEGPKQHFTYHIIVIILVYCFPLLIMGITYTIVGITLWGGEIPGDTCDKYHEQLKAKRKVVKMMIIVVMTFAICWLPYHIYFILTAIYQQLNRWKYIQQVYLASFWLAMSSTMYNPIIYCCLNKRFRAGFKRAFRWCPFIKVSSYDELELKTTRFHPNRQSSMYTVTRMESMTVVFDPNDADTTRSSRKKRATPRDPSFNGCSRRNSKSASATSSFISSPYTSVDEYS
Sequence of Human NK2 (hNK2) receptor (P21452 whole entry): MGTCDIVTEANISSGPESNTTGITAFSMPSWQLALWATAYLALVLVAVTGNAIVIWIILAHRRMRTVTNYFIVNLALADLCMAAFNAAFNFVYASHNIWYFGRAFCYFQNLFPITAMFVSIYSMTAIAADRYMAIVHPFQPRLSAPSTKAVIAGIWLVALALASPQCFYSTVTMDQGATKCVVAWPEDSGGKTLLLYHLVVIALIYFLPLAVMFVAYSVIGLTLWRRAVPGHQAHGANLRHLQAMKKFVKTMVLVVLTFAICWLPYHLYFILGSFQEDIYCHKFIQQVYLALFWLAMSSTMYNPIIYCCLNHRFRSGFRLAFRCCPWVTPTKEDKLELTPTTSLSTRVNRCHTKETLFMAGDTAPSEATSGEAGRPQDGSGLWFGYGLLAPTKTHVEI

| SMILES | IC50 [1] [nM] | IC50 (Human NK1 Receptor) [nM] | IC50 [2, 3] [nM] | IC50 [2] [nM] |
| --- | --- | --- | --- | --- |
| CC(=O)N1CCC(C(=O)N2C[C@@H](N(C)C(=O)N(C)c3cc(C(F)(F)F)cc(C(F)(F)F)c3)[C@H](c3ccc(Cl)c(Cl)c3)C2)CC1 (racemic) [Example 66, 1-[(3S*, 4R*)-1-[(1-acetylpiperidin-4-yl)carbonyl]-4-(3,4-dichlorophenyl)pyrrolidin-3-yl]-3-[3,5-bis(trifluoromethyl)phenyl]-1,3-dimethylurea] | 2 | 0.075 | – | – |
| CC(=O)N1CCC(C(=O)N2CC[C@@H](N(C)C(=O)N(C)c3cc(C(F)(F)F)cc(C(F)(F)F)c3)[C@H](c3ccc(F)cc3)C2)CC1 (relative stereo) [Example 4, 1-[(3R*,4R*)-1-[(1-acetylpiperidin-4-yl)carbonyl]-3-(4-fluorophenyl)piperidin-4-yl]-3-[3,5-bis(trifluoromethyl)phenyl]-1,3-dimethylurea] | 4200 | 0.11 | – | – |
| CC(=O)N1CCC(C(=O)N2CC[C@@H](N(C)C(=O)N(C)c3cc(C(F)(F)F)cc(C(F)(F)F)c3)[C@H](c3ccc(Cl)c(Cl)c3)C2)CC1 [Example 25, 1-[(3R,4R)-1-[(1-acetylpiperidin-4-yl)carbonyl]-3-(3,4-dichlorophenyl)piperidin-4-yl]-3-[3,5-bis(trifluoromethyl)phenyl]-1,3-dimethylurea] | 7.1 | 0.031 | 1400 | – |
| CC(=O)N1CCC(C(=O)N2CC[C@@H](N(C)C(=O)Nc3ccc(Cl)cc3)[C@H](c3ccc(Cl)c(Cl)c3)C2)CC1 [Example 61, 1-[(3R,4R)-1-[(1-acetylpiperidin-4-yl)carbonyl]-3-(3,4-dichlorophenyl)piperidin-4-yl]-3-(4-chlorophenyl)-1-methylurea] | > 100 | 290 | 99 | – |
| CC(=O)N1CCC(C(=O)N2C[C@@H](N(C)C(=O)N(C)c3cc(C(F)(F)F)cc(C(F)(F)F)c3)[C@H](c3ccc(F)cc3)C2)CC1 [Example 71b] | 7.1 | 0.027 | – | – |
| CN(C(=O)N(C)[C@@H]1CCN(C2CCS(=O)(=O)CC2)C[C@H]1c1ccc(F)cc1)c1cc(C(F)(F)F)cc(C(F)(F)F)c1 [Example 104, 1-[3,5-bis(trifluoromethyl)phenyl]-3-[(3R,4R)-1-(1,1-dioxidetetrahydro-2H-thiopyran-4-yl)-3-(4-fluorophenyl)piperidin-4-yl]-1,3-dimethylurea monohydrochloride] | 100 | 0.073 | – | – |
| CC(=O)N1CCC(C(=O)N2C[C@@H](N(C)C(=O)N(C)c3cc(Cl)cc(Cl)c3)[C@H](c3ccc(F)cc3)C2)CC1 [Example 176, 1-[(3S,4R)-1-[(1-acetylpiperidin-4-yl)carbonyl]-4-(4-fluorophenyl)pyrrolidin-3-yl]-3-(3,5-dichlorophenyl)-1,3-dimethylurea] | 12 | 0.029 | 600 | – |
| CC(=O)N1CCC(C(=O)N2C[C@@H](N(C)C(=O)N(C)c3cc(C(F)(F)F)cc(C(F)(F)F)c3)[C@H](c3ccc(F)cn3)C2)CC1 [Example 192, 1-[(3S,4R)-1-[(1-acetylpiperidin-4-yl)carbonyl]-4-(5-fluoropyridin-2-yl)pyrrolidin-3-yl]-3-[3,5-bis(trifluoromethyl)phenyl]-1,3-dimethylurea] | 120 | 0.032 | – | 4400 |
| COC(=O)N[C@H]1CC[C@H](C(=O)N2C[C@@H](N(C)C(=O)N(C)c3cc(C(F)(F)F)cc(C(F)(F)F)c3)[C@H](c3ccc(F)cc3)C2)CC1 [Example 233, methyl (trans-4-{[(3S,4R)-3-[{[3,5-bis(trifluoromethyl)phenyl](methyl)carbamoyl}(methyl)amino]-4-(4-fluorophenyl)pyrrolidin-1-yl]carbonyl}cyclohexyl)carbamate] | 42 | 0.049 | 1100 | – |
| CN(C(=O)N(C)[C@@H]1CN(C(=O)C2CCN(C(=O)C(C)(C)O)CC2)C[C@H]1c1ccc(F)cc1)c1cc(C(F)(F)F)cc(C(F)(F)F)c1 [Example 308, 1-[3,5-bis(trifluoromethyl)phenyl]-3-[(3S,4R)-4-(4-fluorophenyl)-1-{[1-(2-hydroxy-2-methylpropanoyl)piperidin-4-yl]carbonyl}pyrrolidin-3-yl]-1,3-dimethylurea] | 2.4 | 0.07 | – | – |
| CN(C(=O)N(C)[C@@H]1CN(C(=O)NC2CCOCC2)C[C@H]1c1ccc(F)cc1)c1cc(C(F)(F)F)cc(C(F)(F)F)c1 [Example 378, (3S,4R)-3-[{[3,5-bis(trifluoromethyl)phenyl](methyl)carbamoyl}(methyl)amino]-4-(4-fluorophenyl)-N-(tetrahydro-2H-pyran-4-yl)pyrrolidine-1-carboxamide] | 59 | 0.039 | 650 | – |
| CN(C(=O)N(C)[C@@H]1CN(C(=O)N2CCN(S(C)(=O)=O)CC2)C[C@H]1c1ccc(F)cc1)c1cc(Cl)cc(Cl)c1 [Example 420, 1-(3,5-dichlorophenyl)-3-[(3S,4R)-4-(4-fluorophenyl)-1-{[4-(methylsulfonyl)piperazin-1-yl]carbonyl}pyrrolidin-3-yl]-1,3-dimethylurea] | 77 | 0.03 | – | 120 |
